Drawing on patent EP4162932A1, “ANTIVIRAL HOP CONSTITUENTS” (HHV Hallertauer Hopfenveredelungsgesellschaft mbH, priority 2021, dated 2023), this text covers CC50 and IC50 for 4 compounds.

One series can be described thus: in vitro. As to conditions: human, Caco-2.
The next series concerns icSARS-CoV-2-mNG. The series can be described thus: microbe, parasite or virus in culture. As to conditions: Severe acute respiratory syndrome coronavirus 2, Caco-2, 48 h; read-out: half maximal inhibitory concentration (IC50) on virus replication. Type of series: cell-based, SARS-CoV-2.
Another series concerns the target SARS-CoV-2 PLpro (Severe acute respiratory syndrome coronavirus 2, UniProt P0DTD1). The series can be described thus: PLpro kinetic inhibition assay, cleavage of AMC peptide mimicking the C-terminus of human ISG15. It counts as biochemical.

Take `CC(C)=CCc1c(O)cc2c(c1O)C(=O)C[C@@H](c1ccc(O)cc1)O2` [6-PN, 6-prenylnaringenin]: the CC50 in the series “in vitro” was found to be 22.6 µM. For the same compound, the IC50 in the series with icSARS-CoV-2-mNG turned out to be 7.26 µM; against SARS-CoV-2 PLpro, 131 ± 10 µM.
For `CC(C)=CCc1c(O)cc(O)c2c1O[C@H](c1ccc(O)cc1)CC2=O` [8-PN, 8-prenylnaringenin] the same measures were 54.9 µM, 23 µM and 119 ± 13 µM.
Turning to `COc1cc(O)c(CC=C(C)C)c2c1C(=O)CC(c1ccc(O)cc1)O2` (centres unmarked) [IX, isoxanthohumol], the CC50 in “in vitro” worked out at 19.5 µM. Also, the IC50 turned out to be 20.1 µM with icSARS-CoV-2-mNG and 59 ± 15 µM at SARS-CoV-2 PLpro.
In the case of `COc1cc(O)c(CC=C(C)C)c(O)c1C(=O)/C=C/c1ccc(O)cc1` [XN, xanthohumol], the CC50 in the series “in vitro” is 12.3 µM. The IC50 in the series with icSARS-CoV-2-mNG amounted to 3.28 µM.
